By EC50 is commonly meant the concentration needed to bring the measured effect to its halfway point. A low value points to greater potency.

Data set [1] relates to Vero E6 cells.
Data set [2] deals with severe acute respiratory syndrome virus. The data set can be described thus: organism not typed. It is filed as cell-based. As to conditions: Vero C1008.

As to `CC(C)[C@H](NC(=O)OCc1ccccc1)C(=O)N[C@@H](Cc1ccccc1)[C@@H](O)[C@H](O)[C@H](Cc1ccccc1)NC(=O)[C@@H](NC(=O)OC(C)(C)C)C(C)C` [Compound 1], the “inhibitory effect on cell growth” value in data set [1] is on record as “none of them exhibited inhibitory effect on cell growth”. In data set [2], the concentration giving a half-maximal response (EC50) was 0.85 to 100 µM.

On to `CC(C)[C@H](NC(=O)[C@H](C)NC(=O)OCc1ccccc1)C(=O)N[C@@H](Cc1ccccc1)[C@@H](O)[C@H](O)[C@H](Cc1ccccc1)NC(=O)[C@@H](NC(=O)[C@H](C)NC(=O)OCc1ccccc1)C(C)C` [Compound 2], for which the “inhibitory effect on cell growth” value in data set [1] is “none of them exhibited inhibitory effect on cell growth”. The same molecule registered an EC50 in data set [2] of 0.85 to 100 µM.

In the case of `CCCCCCC1=C2C[C@H]3C(C)(C)C[C@@H](OC1=O)[C@@]23C` [Compound 3], the “inhibitory effect on cell growth” value in data set [1] is given as “none of them exhibited inhibitory effect on cell growth”. Besides, the concentration for a half-maximal effect (EC50) in data set [2] lay within 0.85 to 100 µM.

Consider `CCCCCC12C3=C(c4ccccc4)C(=O)O[C@@H]1CC[C@@H]2C3` (stereo partly shown) [Compound 4], for which the “inhibitory effect on cell growth” value in data set [1] is recorded as “none of them exhibited inhibitory effect on cell growth”. For the same molecule, the EC50 in data set [2] lay within 0.85 to 100 µM.

`CC(C)=CCC[C@](C)(O)[C@H]1CC[C@@H]2[C@@H]1CC[C@H]1[C@@]2(C)CC[C@H]2C(C)(C)C(=O)CC[C@]12C` [Compound 6]: the “inhibitory effect on cell growth” value in data set [1] is reported as “none of them exhibited inhibitory effect on cell growth”. In data set [2], the EC50 was in the range of 0.85 to 100 µM.

Take `COC(=O)CCCN1C[C@H](OCc2ccccc2)[C@@H](OCc2ccccc2)[C@H](OCc2ccccc2)[C@H]1COCc1ccccc1` [Compound 9]: the “inhibitory effect on cell growth” value in data set [1] is listed as “none of them exhibited inhibitory effect on cell growth”. The molecule further displayed a concentration for a half-maximal effect (EC50) in data set [2] of 0.85 to 100 µM.

Regarding `CC[C@H]1OC(=O)[C@H](C)C(=O)[C@H](C)[C@@H](O[C@@H]2C[C@H](C)C[C@H](N(C)C)[C@H]2O)[C@@](C)(OC)C[C@@H](C)CN(C(=O)CCCn2cc(-c3ccc(C(F)(F)F)cc3)nn2)[C@H](C)[C@@H](O)[C@]1(C)O` [Compound 11], in data set [1], the “inhibitory effect on cell growth” value is reported as “none of them exhibited inhibitory effect on cell growth”. In data set [2], this molecule had a concentration giving a half-maximal response (EC50) of 0.85 to 100 µM.

With `COC(=O)[C@H]1[C@H]2C[C@@H]3c4[nH]c5cc(OC)ccc5c4CCN3C[C@H]2C[C@@H](OC(=O)c2cc(OC)c(OC)c(OC)c2)[C@@H]1OC` [Compound 13], in data set [1], the “inhibitory effect on cell growth” value is recorded as “none of them exhibited inhibitory effect on cell growth”. For the same molecule, in data set [2], the EC50 is 0.85 to 100 µM.

With `O[C@H]1[C@H](O)[C@@H](OCc2cccc(F)c2)CNC[C@@H]1OCc1cccc(F)c1` [Compound 15], the “inhibitory effect on cell growth” value in data set [1] is reported as “none of them exhibited inhibitory effect on cell growth”. The same molecule displayed an EC50 in data set [2] of 0.85 to 100 µM.

With `CC1(C)CCC2(C(=O)O)CC[C@@]3(C)C(=CCC4[C@@]5(C)CCC(O[C@@H]6OC(O)[C@@H](O)[C@@H](O)C6O[C@@H]6OC(O)[C@@H](O)[C@@H](O)C6O)C(C)(CO)C5CC[C@]43C)C2C1` (stereo partly shown) [Compound 16], in data set [2], the EC50 lay within 0.85 to 100 µM.

For `CC(C)=CCC[C@](C)(CO[C@@H]1OC(CO[C@@H]2OC(CO)[C@@H](O)[C@@H](O)C2O)[C@@H](O)[C@@H](O)C1O)C1CC[C@@]2(C)C1C(O)CC1[C@@]3(C)CCC(O[C@@H]4OC(CO)[C@@H](O)[C@@H](O)C4O[C@@H]4OC(CO)[C@@H](O)[C@@H](O)C4O)C(C)(C)C3CC[C@]12C` (stereo partly shown) [Compound 17], the EC50 in data set [2] is 0.85 to 100 µM.

Take `CC1(C)CC2C3=CCC4[C@@](C)(CCC5[C@@H](O)C(O[C@@H]6OC(CO)[C@@H](O)[C@@H](O)C6O[C@@H]6OC(CO)[C@@H](O)[C@@H](O)C6O)CC[C@@]54C)C3CC[C@@]2(C)[C@H](O)C1` (stereo partly shown) [Compound 18]: the EC50 in data set [2] lay in the range of 0.85 to 100 µM.

As for `COC(=O)[C@H]1[C@H]2C[C@@H]3c4[nH]c5cc(OC)ccc5c4CCN3C[C@H]2C[C@@H](OC(=O)/C=C/c2cc(OC)c(OC)c(OC)c2)[C@@H]1OC` [Compound 19], in data set [2], the concentration for a half-maximal effect (EC50) lay within 0.85 to 100 µM.

Consider `COC(=O)C1=COC[C@H]2CN3CCc4c([nH]c5ccccc45)[C@@H]3C[C@H]12` [Compound 20], for which the EC50 in data set [2] fell in the range of 0.85 to 100 µM.

As for `COC(=O)[C@H]1[C@H]2C[C@H]3c4[nH]c5cc(OC)ccc5c4CCN3C[C@H]2C[C@@H](OC(=O)c2cc(OC)c(OC)c(OC)c2)[C@@H]1OC` [Compound 21], the concentration giving a half-maximal response (EC50) in data set [2] was 0.85 to 100 µM.

As for `COC(=O)[C@H]1[C@H]2C[C@H]3c4[nH]c5ccccc5c4CCN3C[C@@H]2CC[C@@H]1O` [Compound 22], in data set [2], the EC50 was in the range of 0.85 to 100 µM.

The molecule `COC(=O)C1[C@H]2C[C@H]3c4[nH]c5ccccc5c4CCN3C[C@H]2CC[C@@H]1O` (stereo partly shown) [Compound 23] showed a 50% effective concentration (EC50) in data set [2] of 0.85 to 100 µM.

In the case of `COC(=O)[C@@H]1[C@H]2C[C@H]3c4[nH]c5ccccc5c4CCN3C[C@@H]2CC[C@@H]1O` [Compound 24], in data set [2], the half-maximal effective concentration (EC50) was 0.85 to 100 µM.

In data set [2], `Cc1cccc(C)c1OCC(=O)N[C@@H](Cc1ccccc1)C[C@H](O)[C@H](Cc1ccccc1)NC(=O)[C@H](CC(C)C)NC(=O)c1ccc([N+](=O)[O-])o1` [Compound 25] registered a 50% effective concentration (EC50) of 0.85 to 100 µM.

In the case of `Cc1cccc(C(=O)N[C@@H](CC(C)C)C(=O)N[C@@H](Cc2ccccc2)[C@@H](O)C[C@H](Cc2ccccc2)NC(=O)COc2c(C)cccc2C)c1` [Compound 27], the EC50 in data set [2] was in the range of 0.85 to 100 µM.

In the case of `Cc1cccc(C)c1OCC(=O)N[C@@H](Cc1ccccc1)C[C@H](O)[C@H](Cc1ccccc1)NC(=O)[C@H](CC(C)C)NC(=O)CSc1ccccn1` [Compound 28], the EC50 in data set [2] was 0.85 to 100 µM.

The molecule `Cc1cccc(C)c1OCC(=O)N[C@@H](Cc1ccccc1)C[C@H](O)[C@H](Cc1ccccc1)NC(=O)[C@H](CC(C)C)NC(=O)c1cc2ccccc2[nH]1` [Compound 29] yielded an EC50 in data set [2] of 0.85 to 100 µM.

The molecule `Cc1cccc(C)c1OCC(=O)N[C@@H](Cc1ccccc1)C[C@H](O)[C@H](Cc1ccccc1)NC(=O)[C@H](CC(C)C)NC(=O)CN1C(=O)CSC1=S` [Compound 30] came in with an EC50 in data set [2] of 0.85 to 100 µM.

As for `Cc1cccc(C)c1OCC(=O)N[C@@H](Cc1ccccc1)C[C@H](O)[C@H](Cc1ccccc1)NC(=O)[C@H](CC(C)C)NC(=O)c1ccc(C(F)(F)F)cc1` [Compound 31], the EC50 in data set [2] is 0.85 to 100 µM.

Turning to `COc1ccc(/C=C/C(=O)N[C@@H](CC(C)C)C(=O)N[C@@H](Cc2ccccc2)[C@@H](O)C[C@H](Cc2ccccc2)NC(=O)COc2c(C)cccc2C)cc1` [Compound 32], the concentration giving a half-maximal response (EC50) in data set [2] fell in the range of 0.85 to 100 µM.

Regarding `Cc1cccc(C)c1OCC(=O)N[C@@H](Cc1ccccc1)C[C@H](O)[C@H](Cc1ccccc1)NC(=O)[C@H](CC(C)C)NC(=O)CCNC(=O)OC(C)(C)C` [Compound 33], in data set [2], the concentration for a half-maximal effect (EC50) lay in the range of 0.85 to 100 µM.

In turn, `Cc1cccc(C)c1OCC(=O)N[C@@H](Cc1ccccc1)C[C@H](O)[C@H](Cc1ccccc1)NC(=O)[C@H](CC(C)C)NC(=O)C1=CCOc2ccc(Cl)cc21` [Compound 34] returned a concentration giving a half-maximal response (EC50) in data set [2] of 0.85 to 100 µM.

Regarding `Cc1cccc(C)c1OCC(=O)N[C@@H](Cc1ccccc1)C[C@H](O)[C@H](Cc1ccccc1)NC(=O)[C@H](CC(C)C)NC(=O)COc1ccc2ccccc2c1` [Compound 35], in data set [2], the concentration giving a half-maximal response (EC50) is 0.85 to 100 µM.

The record behind these values is patent US8481571B2, “Anti-coronavirus compounds” (Academia Sinica, priority 2004, dated 2013).
